Source: ChEMBL document CHEMBL5226325, “Optimization of a Screening Hit toward M2912, an Oral Tankyrase Inhibitor with Antitumor Activity in Colorectal Cancer Models” (J Med Chem, 2021)

Experiments:
[1] = Modulation of Wnt/beta-catenin signaling pathway in human DLD-1 cells assessed as induction of AXIN2 accumulation incubated for 24 hrs by ELISA; format: cell-based; details: DLD-1, 24 h
[2] = target: Poly [ADP-ribose] polymerase 1 (Homo sapiens, UniProt P09874); assay: Inhibition of PARP-1 (unknown origin) using biotinylated NAD and NAD as substrate assessed as inhibition of auto-PARsylation incubated for 150 mins by TR-FRET assay
Poly [ADP-ribose] polymerase 1, sequence (P09874 whole entry): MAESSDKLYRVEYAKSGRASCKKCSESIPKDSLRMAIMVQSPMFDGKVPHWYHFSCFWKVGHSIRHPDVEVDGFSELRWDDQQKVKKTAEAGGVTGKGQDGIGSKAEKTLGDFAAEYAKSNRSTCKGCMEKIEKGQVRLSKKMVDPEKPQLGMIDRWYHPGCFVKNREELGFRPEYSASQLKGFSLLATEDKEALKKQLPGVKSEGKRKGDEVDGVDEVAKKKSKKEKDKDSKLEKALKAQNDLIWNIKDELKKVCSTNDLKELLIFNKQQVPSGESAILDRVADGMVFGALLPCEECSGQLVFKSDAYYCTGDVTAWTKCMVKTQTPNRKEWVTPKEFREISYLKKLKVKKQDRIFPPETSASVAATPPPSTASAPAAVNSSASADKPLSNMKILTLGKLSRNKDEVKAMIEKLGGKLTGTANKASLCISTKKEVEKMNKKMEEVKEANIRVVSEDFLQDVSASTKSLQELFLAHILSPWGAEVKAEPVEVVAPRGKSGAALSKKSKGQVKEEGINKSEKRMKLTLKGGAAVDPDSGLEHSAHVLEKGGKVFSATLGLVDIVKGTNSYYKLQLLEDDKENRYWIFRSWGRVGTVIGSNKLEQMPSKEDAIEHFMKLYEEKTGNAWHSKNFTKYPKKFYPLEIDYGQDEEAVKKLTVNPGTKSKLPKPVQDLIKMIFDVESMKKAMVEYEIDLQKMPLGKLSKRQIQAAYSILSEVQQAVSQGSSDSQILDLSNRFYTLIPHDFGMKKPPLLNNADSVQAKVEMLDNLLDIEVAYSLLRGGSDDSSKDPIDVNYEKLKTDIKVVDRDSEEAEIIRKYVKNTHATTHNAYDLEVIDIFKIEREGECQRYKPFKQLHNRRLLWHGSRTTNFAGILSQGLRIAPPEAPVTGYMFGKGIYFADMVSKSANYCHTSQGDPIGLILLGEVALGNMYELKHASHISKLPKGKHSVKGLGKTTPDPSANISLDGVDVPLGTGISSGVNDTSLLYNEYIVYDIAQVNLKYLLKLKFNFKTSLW

[3] = target: T1, Poly [ADP-ribose] polymerase tankyrase-2 (Homo sapiens, UniProt Q9H2K2); assay: Inhibition of TNKS2 (unknown origin) using biotinylated NAD as substrate assessed as inhibition of autoPARsylation activity incubated for 1 hr by ELISA
T1 sequence (Q9H2K2 whole entry): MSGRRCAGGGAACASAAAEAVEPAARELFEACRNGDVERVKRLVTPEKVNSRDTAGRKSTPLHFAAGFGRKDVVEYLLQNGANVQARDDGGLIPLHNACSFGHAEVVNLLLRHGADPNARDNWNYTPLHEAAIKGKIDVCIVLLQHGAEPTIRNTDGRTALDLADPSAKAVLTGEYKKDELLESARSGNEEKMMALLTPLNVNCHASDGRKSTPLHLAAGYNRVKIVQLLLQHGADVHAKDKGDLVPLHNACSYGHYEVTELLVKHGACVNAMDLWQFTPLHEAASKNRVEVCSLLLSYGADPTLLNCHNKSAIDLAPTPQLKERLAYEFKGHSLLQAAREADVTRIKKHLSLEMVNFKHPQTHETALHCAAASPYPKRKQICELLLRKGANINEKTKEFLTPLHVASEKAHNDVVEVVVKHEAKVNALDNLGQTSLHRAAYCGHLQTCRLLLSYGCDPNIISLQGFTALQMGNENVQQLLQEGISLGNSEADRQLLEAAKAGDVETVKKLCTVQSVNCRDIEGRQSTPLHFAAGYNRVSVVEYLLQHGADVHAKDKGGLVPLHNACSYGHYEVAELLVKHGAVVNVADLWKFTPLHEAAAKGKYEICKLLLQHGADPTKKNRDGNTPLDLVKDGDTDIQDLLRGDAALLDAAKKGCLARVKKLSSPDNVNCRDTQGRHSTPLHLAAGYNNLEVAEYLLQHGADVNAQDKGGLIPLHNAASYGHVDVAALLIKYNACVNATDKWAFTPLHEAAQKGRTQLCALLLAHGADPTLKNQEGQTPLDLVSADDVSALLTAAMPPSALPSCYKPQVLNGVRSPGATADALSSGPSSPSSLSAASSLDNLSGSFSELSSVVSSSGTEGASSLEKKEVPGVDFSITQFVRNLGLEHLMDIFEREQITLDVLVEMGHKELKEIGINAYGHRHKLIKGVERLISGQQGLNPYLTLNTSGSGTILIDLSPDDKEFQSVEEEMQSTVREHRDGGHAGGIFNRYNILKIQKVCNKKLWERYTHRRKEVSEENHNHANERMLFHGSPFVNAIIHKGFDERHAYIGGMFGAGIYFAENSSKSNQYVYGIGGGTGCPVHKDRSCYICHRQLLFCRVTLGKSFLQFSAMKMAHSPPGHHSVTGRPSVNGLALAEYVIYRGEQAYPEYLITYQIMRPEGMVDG

[4] = target: T2, Poly [ADP-ribose] polymerase tankyrase-1 (Homo sapiens, UniProt O95271); assay: Inhibition of TNKS1 (unknown origin) using biotinylated NAD as substrate assessed as inhibition of autoPARsylation activity incubated for 1 hr by ELISA
T2 sequence (O95271 whole entry): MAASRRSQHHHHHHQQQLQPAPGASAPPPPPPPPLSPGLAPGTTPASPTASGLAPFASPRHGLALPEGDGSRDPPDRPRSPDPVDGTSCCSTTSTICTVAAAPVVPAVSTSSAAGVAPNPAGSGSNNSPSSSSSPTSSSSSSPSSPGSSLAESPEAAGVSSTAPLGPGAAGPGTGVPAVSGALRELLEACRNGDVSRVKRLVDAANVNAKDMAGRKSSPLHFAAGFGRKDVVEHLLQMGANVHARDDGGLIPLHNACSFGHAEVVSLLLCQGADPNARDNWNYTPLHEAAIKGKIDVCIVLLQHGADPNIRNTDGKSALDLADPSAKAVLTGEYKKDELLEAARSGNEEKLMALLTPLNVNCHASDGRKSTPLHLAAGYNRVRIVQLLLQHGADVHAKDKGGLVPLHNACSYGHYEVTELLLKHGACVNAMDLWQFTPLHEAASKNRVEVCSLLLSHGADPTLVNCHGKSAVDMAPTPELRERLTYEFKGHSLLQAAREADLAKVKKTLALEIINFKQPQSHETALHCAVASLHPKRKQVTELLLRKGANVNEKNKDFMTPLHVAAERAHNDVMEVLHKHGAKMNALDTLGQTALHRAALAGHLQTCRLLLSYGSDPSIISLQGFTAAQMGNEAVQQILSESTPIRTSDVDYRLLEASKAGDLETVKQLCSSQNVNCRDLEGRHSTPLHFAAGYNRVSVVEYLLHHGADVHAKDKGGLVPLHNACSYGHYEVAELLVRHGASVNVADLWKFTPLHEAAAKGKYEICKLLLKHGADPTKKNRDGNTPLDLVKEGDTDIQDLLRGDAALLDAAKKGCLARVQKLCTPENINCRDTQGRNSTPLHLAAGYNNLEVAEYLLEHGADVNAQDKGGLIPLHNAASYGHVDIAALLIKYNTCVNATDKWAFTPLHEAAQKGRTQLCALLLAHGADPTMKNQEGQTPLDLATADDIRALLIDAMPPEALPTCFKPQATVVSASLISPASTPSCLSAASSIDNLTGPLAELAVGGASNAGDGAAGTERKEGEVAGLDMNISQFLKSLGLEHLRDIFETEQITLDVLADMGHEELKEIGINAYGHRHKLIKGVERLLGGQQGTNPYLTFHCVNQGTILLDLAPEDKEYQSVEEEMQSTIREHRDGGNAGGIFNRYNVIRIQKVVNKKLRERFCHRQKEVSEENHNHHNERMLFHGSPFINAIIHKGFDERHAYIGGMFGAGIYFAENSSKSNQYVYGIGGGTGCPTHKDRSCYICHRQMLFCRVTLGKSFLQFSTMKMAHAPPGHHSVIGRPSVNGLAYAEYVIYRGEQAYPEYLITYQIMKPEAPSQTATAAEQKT

[5] = target: T2, Poly [ADP-ribose] polymerase tankyrase-1; assay: Binding affinity to recombinant human TNKS1 (1091 to 1327 residues) assessed as dissociation constant by ITC method
[6] = target: T2, Poly [ADP-ribose] polymerase tankyrase-1; assay: Inhibition of TNKS1 (unknown origin) using biotinylated NAD as substrate assessed as inhibition of autoPARsylation activity incubated for 90 mins by TR-FRET analysis

Row | Structure (SMILES) | EC50 [1] [nM] | IC50 [2] [nM] | IC50 [3] [nM] | IC50 [4] [nM] | Kd [5] [nM] | IC50 [6] [nM]
1 | Cc1ncc2c(=O)[nH]c(-c3ccc(C(C)(C)O)cc3)cn12 | 749 | 23000 | 14 | 12 | – | –
2 | CC(C)(O)c1ccc(-c2cn3cc(F)cc3c(=O)[nH]2)cc1 | 147 | 450 | 2.9 | 1.9 | – | –
3 | Cc1ncc2c(=O)[nH]c(-c3ccc(C(C)(C)C)cc3)cn12 | 210 | 28000 | 3.8 | 2.9 | – | –
4 | Cc1ccc2c(=O)[nH]c(-c3ccc([C@](C)(O)CO)cc3)cn12 | 82 | 604 | 2 | 2.6 | – | –
5 | CC(C)(O)c1ccc(-c2cn3c(CO)ccc3c(=O)[nH]2)cc1 | 580 | 4200 | 8.2 | 9.8 | – | –
6 | Cc1ccc2c(=O)[nH]c(-c3ccc(C4(O)COC4)cc3)cn12 | 28 | 350 | 1.8 | 2.5 | – | –
7 | CC(C)(O)c1ccc(-c2cn3c(F)c(F)cc3c(=O)[nH]2)cc1 | 159 | 1300 | 3.5 | 1.2 | – | –
8 | CC(C)(C)c1ccc(-c2cn3ccnc3c(=O)[nH]2)cc1 | 1430 | – | – | 21 | – | –
9 | Cc1cc2c(=O)[nH]c(-c3ccc(C(C)(C)O)cc3)cn2c1 | 230 | 1900 | 7.9 | 2.3 | – | –
10 | Cc1csc2c(=O)[nH]c(-c3ccc(C(C)(C)O)cc3)nc12 | 96 | 440 | 1.5 | 2 | – | –
11 | Cc1ccc2c(=O)[nH]c(-c3ccc(C(C)(C)OCCO)cc3)cn12 | 20 | 693 | 1.5 | 2.3 | – | –
12 | Cc1ccc2c(=O)[nH]c(-c3ccc(C(C)(C)O)cc3)nn12 | 28 | 950 | 0.9 | 0.8 | – | –
13 | Cc1ccc2c(=O)[nH]c(-c3ccc(C4(O)CC4)cc3)cn12 | 49 | 330 | 1 | 1 | – | –
14 | Cc1ccc2c(=O)[nH]c(-c3ccc([C@@](C)(O)CO)cc3)cn12 | 93 | 748 | 1.7 | 1.9 | – | –

Second part, the compound after the results:

Row | EC50 [1] [nM] | IC50 [2] [nM] | IC50 [3] [nM] | IC50 [4] [nM] | Kd [5] [nM] | IC50 [6] [nM] | Structure (SMILES)
15 | 635 | – | 35 | 27 | – | – | CC(C)(C)c1ccc(-c2cn3cncc3c(=O)[nH]2)cc1
16 | 16 | 340 | 1.6 | 2.1 | – | – | Cc1ccc2c(=O)[nH]c(-c3ccc([C@@](C)(O)CCO)cc3)cn12
17 | 113 | 2000 | 6.1 | 3.4 | 6 | – | CC(C)(O)c1ccc(-c2cn3c(F)ccc3c(=O)[nH]2)cc1
18 | – | – | – | – | – | 1500 | Cc1ccc(-c2cn3ccnc3c(=O)[nH]2)cc1
19 | 120 | 920 | 5.5 | 2.7 | 6 | – | CC(C)(O)c1ccc(-c2cn3cccc3c(=O)[nH]2)cc1
20 | 118 | 630 | 9.4 | 2.5 | – | – | CC(C)(O)c1ccc(-c2cn3cc(Cl)cc3c(=O)[nH]2)cc1
21 | 12000 | – | 2600 | 570 | – | – | Cc1cc2c(=O)[nH]c(-c3ccc(C(C)(C)O)cc3)nn2n1
22 | 18 | 770 | 1 | 0.8 | – | – | Cc1ccc2c(=O)[nH]c(-c3ccc([C@](C)(O)CCO)cc3)cn12
23 | 510 | 3700 | 36 | 13 | – | – | Cc1cc2c(=O)[nH]c(-c3ccc(C(C)(C)O)cc3)cn2n1
